From patent US12077503B2, “Substituted cyclic amides and their use as herbicides” (FMC CORPORATION, priority 2015, dated 2024)
Where two headings read alike, the source gives them in different places.

Experiments:
Assay type in all cases: in vivo
[1] = test system: pigweed (Amaranthus retroflexus); test: Test A preemergence; conditions: Amaranthus retroflexus, pre-emergence, 240 h; for pest or weed control at 125 g/ha: 125 g ai/ha; for pest or weed control at 500 g/ha: 500 g ai/ha
rice (Oryra sativa) = test: Test B flooded paddy test; conditions: Oryza sativa, 250 g ai/ha, Flood, read-out: Rice plant response rating
In short: (§1)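 Rating scale 0–100 (visual, vs untreated controls) after a 13–15 d greenhouse period; application to the flood layer, 3 cm above soil and maintained; plants at 2-leaf stage when treated.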

[2] = test system: sedge, umbrella (small-flower umbrella sedge, Cyperus difformis); test: Test B flooded paddy test; conditions: Cyperus difformis, 250 g ai/ha, Flood, read-out: Sedge, Umbrella plant response rating
In short: as §1

[3] = test system: barnyardgrass (Echinochloa crus-galli); test: Test B flooded paddy test; conditions: Echinochloa crus-galli, 250 g ai/ha, Flood, read-out: Barnyardgrass plant response rating
In short: as §1

[4] = test system: ducksalad (Heteranthera limosa); test: Test B flooded paddy test; conditions: Heteranthera limosa, 250 g ai/ha, Flood, read-out: Ducksalad plant response rating
In short: as §1

corn (Zea mays) = test: Test A postemergence; conditions: Zea mays, post-emergence, 240 h
In short: (§2)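 Visual injury scores from 0, no effect, to 100, complete control, were assigned versus untreated controls roughly 10 d after treatment in the greenhouse. Test chemicals, formulated with surfactant in a non-phytotoxic solvent, were applied to planted seeds as a preemergence soil spray or postemergence to one- to two-leaf plants 2 to 10 cm tall, in loam–sand soil.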

[5] = test system: giant foxtail (Setaria faberii); test: Test A postemergence; conditions: Setaria faberi, post-emergence, 240 h, postemergence; for pest or weed control at 125 g/ha: 125 g ai/ha
In short: as §2

[6] = test system: blackgrass (Alopecurus myosuroides); test: Test A postemergence; conditions: Alopecurus myosuroides, post-emergence, 240 h; for pest or weed control at 125 g/ha: 125 g ai/ha
In short: as §2

[7] = test system: ryegrass, Italian (Italian ryegrass, Lolium multiflorum); test: Test A postemergence; conditions: Lolium multiflorum, post-emergence, 240 h, postemergence; for pest or weed control at 125 g/ha: 125 g ai/ha
In short: as §2

[8] = test system: pigweed (Amaranthus retroflexus); test: Test A postemergence; conditions: Amaranthus retroflexus, post-emergence, 240 h, postemergence; for pest or weed control at 125 g/ha: 125 g ai/ha
In short: as §2

Kochia (Kochia scoparia) = test: Test A postemergence; conditions: Bassia scoparia, post-emergence, 240 h, postemergence; for pest or weed control at 125 g/ha: 125 g ai/ha
In short: as §2

[9] = test system: Galium (catchweed bedstraw, Galium aparine); test: Test A postemergence; conditions: Galium, post-emergence, 240 h, postemergence; for pest or weed control at 125 g/ha: 125 g ai/ha
In short: as §2

[10] = test system: wheat (Triticum aestivum); test: Test A postemergence; conditions: Triticum aestivum, post-emergence, 240 h, postemergence; for plant injury at 125 g/ha: 125 g ai/ha
In short: as §2

[11] = test system: barnyardgrass (Echinochloa crus-galli); test: Test A postemergence; conditions: Echinochloa crus-galli, post-emergence, 240 h; for pest or weed control at 125 g/ha: 125 g ai/ha
In short: as §2

[12] = test system: ragweed (common ragweed, Ambrosia elatior); test: Test A postemergence; conditions: Ambrosia artemisiifolia, post-emergence, 240 h, postemergence; for pest or weed control at 125 g/ha: 125 g ai/ha
In short: as §2

[13] = 0 to 100 scale where 0 is no effect and 100 is complete control
[14] = scale of 0 to 100 where 0 is no effect and 100 is complete control

Cc1ccc([C@H]2CNC(=O)[C@@H]2C(=O)Nc2ccccc2S(C)(=O)=O)cc1C [Compound 1037]
pest or weed control at 125 g/ha ([1]; Preemergence, visual injury rating after approximately 10 d, read-out: Pigweed plant response rating (0 to 100 scale, 0 is no effect, 100 is complete control)): 0%
pest or weed control at 500 g/ha ([1]; preemergence, visual injury rating about 10 d after treatment, 0 to 100 scale (0 no effect, 100 complete control), read-out: Pigweed plant response rating): 20%
pest or weed control at 250 g/ha (rice (Oryra sativa); [13]): 0%
pest or weed control at 250 g/ha [2, 13]: 0%
pest or weed control at 250 g/ha [3, 13]: 25%
pest or weed control at 250 g/ha [4, 13]: 100%
Corn plant response rating (crop injury, 0 = no effect, 100 = complete kill) at 125 g/ha (corn (Zea mays); 125 g ai/ha, Postemergence, visual injury after approximately 10 d, 0 to 100 scale where 0 is no effect and 100 is complete control): 0%
Corn plant response rating (crop injury, 0 = no effect, 100 = complete kill) at 500 g/ha (corn (Zea mays); 500 g ai/ha, postemergence, visual injury, 0 to 100 scale (0 no effect, 100 complete control), approx. 10 d): 30%
pest or weed control at 125 g/ha ([5]; visual injury on 0 to 100 scale (0 no effect, 100 complete control), approx. 10 d, read-out: Foxtail, Giant plant response rating): 0%
pest or weed control at 500 g/ha ([5]; 500 g ai/ha, visual injury, 0 to 100 scale (0 no effect, 100 complete control), approx. 10 d, read-out: Plant response rating, Foxtail, Giant): 30%
pest or weed control at 125 g/ha ([6]; Postemergence, visual injury after approximately 10 d, 0 to 100 scale where 0 is no effect and 100 is complete control, read-out: Plant response rating, Blackgrass): 0%
pest or weed control at 500 g/ha ([6]; 500 g ai/ha, postemergence, visual injury, 0 to 100 scale (0 no effect, 100 complete control), approx. 10 d, read-out: Plant response rating, Blackgrass): 20%
pest or weed control at 125 g/ha ([7]; visual injury on 0 to 100 scale (0 no effect, 100 complete control), approx. 10 d, read-out: Ryegrass, Italian plant response rating): 0%
pest or weed control at 500 g/ha ([7]; 500 g ai/ha, visual injury, 0 to 100 scale (0 no effect, 100 complete control), approx. 10 d, read-out: Plant response rating, Ryegrass, Italian): 50%
pest or weed control at 125 g/ha ([8]; visual injury on 0 to 100 scale (0 no effect, 100 complete control), approx. 10 d, read-out: Pigweed plant response rating): 0%
pest or weed control at 500 g/ha ([8]; 500 g ai/ha, visual injury, 0 to 100 scale (0 no effect, 100 complete control), approx. 10 d, read-out: Plant response rating, Pigweed): 0%
pest or weed control at 125 g/ha (Kochia (Kochia scoparia); visual injury on 0 to 100 scale (0 no effect, 100 complete control), approx. 10 d, read-out: Kochia plant response rating): 0%
pest or weed control at 500 g/ha (Kochia (Kochia scoparia); 500 g ai/ha, visual injury, 0 to 100 scale (0 no effect, 100 complete control), approx. 10 d, read-out: Plant response rating, Kochia): 20%
pest or weed control at 125 g/ha ([9]; visual injury on 0 to 100 scale (0 no effect, 100 complete control), approx. 10 d, read-out: Galium plant response rating): 40%
pest or weed control at 500 g/ha ([9]; 500 g ai/ha, visual injury, 0 to 100 scale (0 no effect, 100 complete control), approx. 10 d, read-out: Plant response rating, Galium): 60%
plant injury at 125 g/ha ([10]; visual injury on 0 to 100 scale (0 no effect, 100 complete control), approx. 10 d, read-out: Wheat plant response rating): 0%
plant injury at 500 g/ha ([10]; 500 g ai/ha, visual injury, 0 to 100 scale (0 no effect, 100 complete control), approx. 10 d, read-out: Plant response rating, Wheat): 30%
pest or weed control at 125 g/ha ([11]; Postemergence, visual injury after approximately 10 d, 0 to 100 scale where 0 is no effect and 100 is complete control, read-out: Plant response rating, Barnyardgrass): 70%
pest or weed control at 500 g/ha ([11]; 500 g ai/ha, postemergence, visual injury, 0 to 100 scale (0 no effect, 100 complete control), approx. 10 d, read-out: Plant response rating, Barnyardgrass): 90%
pest or weed control at 125 g/ha ([12]; visual injury on 0 to 100 scale (0 no effect, 100 complete control), approx. 10 d, read-out: Ragweed plant response rating): 20%
pest or weed control at 500 g/ha ([12]; 500 g ai/ha, visual injury, 0 to 100 scale (0 no effect, 100 complete control), approx. 10 d, read-out: Plant response rating, Ragweed): 30%

CN1C[C@H](c2cccc(COC(F)F)c2)[C@@H](C(=O)Nc2ccccc2S(C)(=O)=O)C1=O [Compound 877]
pest or weed control at 125 g/ha ([1]; preemergence, 0 to 100 scale where 0 is no effect and 100 is complete control, read-out: Pigweed plant response rating): 0%
pest or weed control at 500 g/ha ([1]; Preemergence, visual injury vs untreated controls after approximately 10 d, read-out: Pigweed plant response rating (0 to 100 scale where 0 is no effect and 100 is complete control)): 0%
pest or weed control at 250 g/ha (rice (Oryra sativa); [14]): 0%
pest or weed control at 250 g/ha [2, 14]: 0%
pest or weed control at 250 g/ha [3, 14]: 55%
pest or weed control at 250 g/ha [4, 14]: 100%
plant injury at 125 g/ha (corn (Zea mays); 125 g ai/ha, postemergence, visual injury rating after approximately 10 d, read-out: Corn plant response rating (0 to 100 scale, 0 no effect, 100 complete control)): 0%
pest or weed control at 125 g/ha ([5]; visual injury rating after approximately 10 d, read-out: Foxtail, Giant plant response rating (0 to 100 scale, 0 no effect, 100 complete control)): 70%
pest or weed control at 125 g/ha ([6]; postemergence, visual injury rating after approximately 10 d, read-out: Blackgrass plant response rating (0 to 100 scale, 0 no effect, 100 complete control)): 0%
pest or weed control at 125 g/ha ([7]; visual injury rating after approximately 10 d, read-out: Ryegrass, Italian plant response rating (0 to 100 scale, 0 no effect, 100 complete control)): 20%
pest or weed control at 125 g/ha ([8]; visual injury rating after approximately 10 d, read-out: Pigweed plant response rating (0 to 100 scale, 0 no effect, 100 complete control)): 0%
pest or weed control at 125 g/ha (Kochia (Kochia scoparia); visual injury rating after approximately 10 d, read-out: Kochia plant response rating (0 to 100 scale, 0 no effect, 100 complete control)): 20%
pest or weed control at 125 g/ha ([9]; visual injury rating after approximately 10 d, read-out: Galium plant response rating (0 to 100 scale, 0 no effect, 100 complete control)): 20%
plant injury at 125 g/ha ([10]; visual injury rating after approximately 10 d, read-out: Wheat plant response rating (0 to 100 scale, 0 no effect, 100 complete control)): 30%
pest or weed control at 125 g/ha ([11]; postemergence, visual injury rating after approximately 10 d, read-out: Barnyardgrass plant response rating (0 to 100 scale, 0 no effect, 100 complete control)): 60%
pest or weed control at 125 g/ha ([12]; visual injury rating after approximately 10 d, read-out: Ragweed plant response rating (0 to 100 scale, 0 no effect, 100 complete control)): 0%
